Laboratory results: patent publication US8952024B2, “Herbicidal pyrimidone derivatives” (E I du Pont de Nemours and Company, priority 2009, dated 2015)
Like-named read-outs stand apart in the source and are kept apart here.

Key:
Format in all cases: in vivo
[1] = test system: barnyardgrass (Echinochloa crus-galli); assay: Test A pre-/postemergence plant response; details: Echinochloa crus-galli, 240 h; for pest or weed control at 125 g/ha: 125 g ai/ha; for pest or weed control at 500 g/ha: 500 g ai/ha
How it was run: (§1)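 Injury was scored visually after roughly ten days against untreated controls, 0 = no effect, 100 = complete control. Test chemicals in a surfactant-containing non-phytotoxic solvent were sprayed either onto soil preemergence or onto one- to two-leaf, 2–10 cm plants postemergence.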

[2] = test system: pigweed (Amaranthus retroflexus); assay: Test A pre-/postemergence plant response; details: Amaranthus retroflexus, 240 h; for pest or weed control at 125 g/ha: 125 g ai/ha; for pest or weed control at 500 g/ha: 500 g ai/ha
How it was run: as §1

[3] = test system: Italian ryegrass (Lolium multiflorum); assay: Test B pre-/postemergence plant response; details: for pest or weed control at 31 g/ha: 31 g ai/ha; for pest or weed control at 62 g/ha: 62 g ai/ha
How it was run: (§2)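 Response scores were assigned visually after 13 to 15 days in a greenhouse, comparing treated pots with controls on a 0–100 scale where 100 denotes complete control. Preemergence treatments went onto freshly seeded loam/sand soil; postemergence treatments onto plants 2 to 18 cm tall.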

[4] = test system: Surinam grass (Brachiaria decumbens); assay: Test B pre-/postemergence plant response; details: for pest or weed control at 31 g/ha: 31 g ai/ha; for pest or weed control at 62 g/ha: 62 g ai/ha
How it was run: as §2

[5] = test system: blackgrass (Alopecurus myosuroides); assay: Test B pre-/postemergence plant response; details: for pest or weed control at 16 g/ha: 16 g ai/ha; for pest or weed control at 16 g/ha / pest or weed control at 31 g/ha / pest or weed control at 62 g/ha: read-out: Plant response rating, Blackgrass; for pest or weed control at 31 g/ha: 31 g ai/ha; for pest or weed control at 62 g/ha: 62 g ai/ha
How it was run: as §2

[6] = test system: downy bromegrass (Bromus tectorum); assay: Test B pre-/postemergence plant response; details: for pest or weed control at 16 g/ha: 16 g ai/ha; for pest or weed control at 16 g/ha / pest or weed control at 31 g/ha / pest or weed control at 62 g/ha: read-out: Plant response rating, Bromegrass, Downy; for pest or weed control at 31 g/ha: 31 g ai/ha; for pest or weed control at 62 g/ha: 62 g ai/ha
How it was run: as §2

[7] = test system: goosegrass (Eleusine indica); assay: Test B pre-/postemergence plant response; details: Eleusine indica; for pest or weed control at 16 g/ha: 16 g ai/ha; for pest or weed control at 16 g/ha / pest or weed control at 31 g/ha / pest or weed control at 62 g/ha: read-out: Plant response rating, Goosegrass; for pest or weed control at 31 g/ha: 31 g ai/ha; for pest or weed control at 62 g/ha: 62 g ai/ha
How it was run: as §2

[8] = Lolium multiflorum, pre-emergence, Preemergence, scale 0 to 100 (0 no effect, 100 complete control), read-out: Plant response rating, Ryegrass, Italian
[9] = Preemergence, 125 g ai/ha, 0 to 100 scale
[10] = Urochloa decumbens, pre-emergence, Preemergence, scale 0 to 100 (0 no effect, 100 complete control), read-out: Plant response rating, Surinam Grass
[11] = Alopecurus myosuroides, pre-emergence, 360 h, Preemergence, scale 0 to 100 (0 no effect, 100 complete control)
[12] = Bromus tectorum, pre-emergence, Preemergence, scale 0 to 100 (0 no effect, 100 complete control)
[13] = pre-emergence, Preemergence, scale 0 to 100 (0 no effect, 100 complete control)

Question: `O=C1CCCC(O)=C1C(=O)c1cnc(-c2ccccc2)n(-c2ccccc2)c1=O` [Compound 2, 5-[(2-hydroxy-6-oxo-1-cyclohexen-1-yl)carbonyl]-2,3-diphenyl-4(3H)-pyrimidinone] was tested. Which pest or weed control at 125 g/ha ([1]; post-emergence, Postemergence, visual injury, 0 to 100 scale (0 no effect, 100 complete control), approx. ten days, read-out: Barnyardgrass plant response rating) did it give?
Answer: 100%

Question: What about the pest or weed control at 500 g/ha ([1]; post-emergence, Postemergence, 0 to 100 scale, 0 = no effect, 100 = complete control, approx. ten days, read-out: Plant response rating, Barnyardgrass) of the same compound?
Answer: 100%

Question: And the pest or weed control at 125 g/ha ([1]; pre-emergence, Preemergence, 0 to 100 scale, 0 = no effect, 100 = complete control, read-out: Plant response rating, Barnyardgrass)?
Answer: 10%

Question: What about the pest or weed control at 500 g/ha ([1]; pre-emergence, Preemergence, visual injury, 0 to 100 scale (0 no effect, 100 complete control), approx. ten days, read-out: Plant response rating, Barnyardgrass) of the same compound?
Answer: 70%

Question: What about the pest or weed control at 125 g/ha ([2]; post-emergence, Postemergence, visual injury, 0 to 100 scale (0 no effect, 100 complete control), approx. ten days, read-out: Pigweed plant response rating) of the same compound?
Answer: 100%

Question: And the pest or weed control at 500 g/ha ([2]; post-emergence, Postemergence, 0 to 100 scale, 0 = no effect, 100 = complete control, approx. ten days, read-out: Plant response rating, Pigweed)?
Answer: 100%

Question: What about the pest or weed control at 125 g/ha ([2]; pre-emergence, Preemergence, 0 to 100 scale, 0 = no effect, 100 = complete control, read-out: Plant response rating, Pigweed) of the same compound?
Answer: 100%

Question: And the pest or weed control at 500 g/ha ([2]; pre-emergence, Preemergence, visual injury, 0 to 100 scale (0 no effect, 100 complete control), approx. ten days, read-out: Plant response rating, Pigweed)?
Answer: 100%

Question: What about the pest or weed control at 16 g/ha ([3]; Lolium multiflorum, post-emergence, 16 g ai/ha, Postemergence, 0 to 100 scale, read-out: Plant response rating, Ryegrass, Italian) of the same compound?
Answer: 0%

Question: What about the pest or weed control at 31 g/ha ([3]; Lolium multiflorum, post-emergence, Postemergence, scale 0 to 100 (0 no effect, 100 complete control), read-out: Plant response rating, Ryegrass, Italian) of the same compound?
Answer: 0%

Question: What about the pest or weed control at 62 g/ha ([3]; Lolium multiflorum, post-emergence, Postemergence, scale 0 (no effect) to 100 (complete control), 13 to 15 days, read-out: Plant response rating, Ryegrass, Italian) of the same compound?
Answer: 40%

Question: What about the pest or weed control at 125 g/ha ([3]; Lolium multiflorum, post-emergence, Postemergence, 125 g ai/ha, visual rating after 13 to 15 days, scale 0 (no effect) to 100 (complete control)) of the same compound?
Answer: 40%

Question: What about the pest or weed control at 31 g/ha [3, 8] of the same compound?
Answer: 0%

Question: And the pest or weed control at 62 g/ha [3, 8]?
Answer: 0%

Question: And the “Ryegrass, Italian plant response rating” value [3, 9]?
Answer: 5

Question: What about the “Surinam Grass plant response rating” value [4, 9] of the same compound?
Answer: 60

Question: What about the pest or weed control at 16 g/ha ([4]; Urochloa decumbens, post-emergence, 16 g ai/ha, Postemergence, 0 to 100 scale, read-out: Plant response rating, Surinam Grass) of the same compound?
Answer: 70%

Question: What about the pest or weed control at 31 g/ha ([4]; Urochloa decumbens, post-emergence, Postemergence, scale 0 to 100 (0 no effect, 100 complete control), read-out: Plant response rating, Surinam Grass) of the same compound?
Answer: 70%

Question: And the pest or weed control at 62 g/ha ([4]; Urochloa decumbens, post-emergence, Postemergence, scale 0 (no effect) to 100 (complete control), 13 to 15 days, read-out: Plant response rating, Surinam Grass)?
Answer: 75%

Question: And the pest or weed control at 125 g/ha ([4]; Urochloa decumbens, post-emergence, Postemergence, 125 g ai/ha, visual rating after 13 to 15 days, scale 0 (no effect) to 100 (complete control))?
Answer: 85%

Question: What about the pest or weed control at 31 g/ha [4, 10] of the same compound?
Answer: 15%

Question: And the pest or weed control at 62 g/ha [4, 10]?
Answer: 20%

Question: What about the pest or weed control at 16 g/ha ([5]; Alopecurus myosuroides, post-emergence, 360 h, Postemergence, 0 to 100 scale) of the same compound?
Answer: 0%

Question: And the pest or weed control at 31 g/ha ([5]; Alopecurus myosuroides, post-emergence, 360 h, Postemergence, scale 0 to 100 (0 no effect, 100 complete control))?
Answer: 10%

Question: What about the pest or weed control at 62 g/ha ([5]; Alopecurus myosuroides, post-emergence, 360 h, Postemergence, scale 0 (no effect) to 100 (complete control), 13 to 15 days) of the same compound?
Answer: 30%

Question: And the pest or weed control at 125 g/ha ([5]; Alopecurus myosuroides, post-emergence, 360 h, Postemergence, 125 g ai/ha, visual rating after 13 to 15 days, scale 0 (no effect) to 100 (complete control))?
Answer: 45%

Question: And the pest or weed control at 16 g/ha [5, 11]?
Answer: 0%

Question: And the pest or weed control at 31 g/ha [5, 11]?
Answer: 0%

Question: And the pest or weed control at 62 g/ha ([5]; Alopecurus myosuroides, pre-emergence, 360 h, Preemergence, scale 0 to 100, 0 no effect, 100 complete control)?
Answer: 0%

Question: What about the “Blackgrass plant response rating” value [5, 9] of the same compound?
Answer: 50

Question: What about the pest or weed control at 16 g/ha ([6]; Bromus tectorum, post-emergence, Postemergence, 0 to 100 scale) of the same compound?
Answer: 20%

Question: And the pest or weed control at 31 g/ha ([6]; Bromus tectorum, post-emergence, Postemergence, scale 0 to 100 (0 no effect, 100 complete control))?
Answer: 35%

Question: What about the pest or weed control at 62 g/ha ([6]; Bromus tectorum, post-emergence, Postemergence, scale 0 (no effect) to 100 (complete control), 13 to 15 days) of the same compound?
Answer: 60%

Question: And the pest or weed control at 125 g/ha ([6]; Bromus tectorum, post-emergence, Postemergence, 125 g ai/ha, visual rating after 13 to 15 days, scale 0 (no effect) to 100 (complete control))?
Answer: 80%

Question: What about the pest or weed control at 16 g/ha [6, 12] of the same compound?
Answer: 0%

Question: What about the pest or weed control at 31 g/ha [6, 12] of the same compound?
Answer: 0%

Question: And the pest or weed control at 62 g/ha ([6]; Bromus tectorum, pre-emergence, Preemergence, scale 0 to 100, 0 no effect, 100 complete control)?
Answer: 0%

Question: What about the “Bromegrass, Downy plant response rating” value [6, 9] of the same compound?
Answer: 5

Question: What about the pest or weed control at 16 g/ha ([7]; post-emergence, Postemergence, 0 to 100 scale) of the same compound?
Answer: 80%

Question: What about the pest or weed control at 31 g/ha ([7]; post-emergence, Postemergence, scale 0 to 100 (0 no effect, 100 complete control)) of the same compound?
Answer: 80%

Question: And the pest or weed control at 62 g/ha ([7]; post-emergence, Postemergence, scale 0 (no effect) to 100 (complete control), 13 to 15 days)?
Answer: 90%

Question: And the pest or weed control at 125 g/ha ([7]; post-emergence, Postemergence, 125 g ai/ha, visual rating after 13 to 15 days, scale 0 (no effect) to 100 (complete control))?
Answer: 95%

Question: And the pest or weed control at 16 g/ha [7, 13]?
Answer: 0%

Question: And the pest or weed control at 31 g/ha [7, 13]?
Answer: 85%

Question: And the pest or weed control at 62 g/ha ([7]; pre-emergence, Preemergence, scale 0 to 100, 0 no effect, 100 complete control)?
Answer: 100%
